According to patent US12022829B2, “Water-dispersible fine particle” (TOYOBO CO., LTD., priority 2018, dated 2024):

Legend:
Assay type in all cases: cell-based
P. fluorescens biofilm [1] = experiment: Anti-biofilm coat test using fine particle suspension (Test example 2); settings: water washing, cultivation 30° C. 48 hours, CV staining
Method: (§1) A test piece was taken out after the cultivation and washed using normal saline, and a biofilm amount adhered on the test piece surface was measured. The biofilm amount was measured by CV (crystal violet) staining method. Specifically, a test piece was immersed in 0.1 wt % CV aqueous solution for 30 minutes, an excessive CV was washed out using water, an extraction from the stained region was carried out using 98% ethanol, and an absorbance of 500 nm was measured.
P. fluorescens, which is a gram-negative bacillus having high productivity of a biofilm, was used for evaluating an anti-biofilm property. A dried standard product of P. fluorescens was obtained as NBRC No. 14160 and recovered by the following method. DAIGO growth medium 802 (8.4 g) manufactured by Wako Pure Chemical Corporation and 300 mL of purified water were weighed and added into a beaker, and the mixture was stirred at room temperature for about 30 minutes for dispersion. A recovering liquid was sterilized by an autoclave, 0.2 mL of the recovering liquid was taken out using a micropipette and added into an ample of a dried standard product of P. fluorescens, and the mixture was stirred. Separately, 25 mL of SCD broth (Soybean-Casein Digest Broth) manufactured by Wako Pure Chemical Corporation was added in a flask, and […] of the above P. fluorescens suspension was subsequently added thereto. The bacterium was cultivated at 30° C. and a velocity of 150 rpm in a constant temperature incubator shaker for 24 hours for cultivation. After the cultivation, the bacterium was added in 80% glycerol, and the bacterium liquid was preserved at −80° C.
A fine particle suspension of ε-PL was prepared by using the GPE-ized polycarboxylic acid of Production examples 1 to 5 as a test sample liquid for an anti-biofilm coat. A fine particle suspension was prepared by mixing the both of the aqueous solutions of the GPE-ized polycarboxylic acid and ε-PL so that a concentration of the GPE-ized polycarboxylic acid in the fine particle suspension became 0.5 wt % and a concentration of ε-PL became 0.045 wt %. For comparison, a simple ε-PL aqueous solution, an IPMP (4-isopropyl-3-methylphenol, manufactured by Wako Pure Chemical Corporation) ethanol solution and a silver nano particle aqueous suspension manufactured by JAPAN ION Corporation having concentrations of 0.045 wt % were respectively produced. […] The test piece coated with each drug was stirred at 25° C. and 350 rpm for 1 minute for washing with water as a water section environment. The test piece after the water washing was immersed in a broth containing the bacterium liquid prepared in Test example 1, and a biofilm was formed by a cultivation at 30° C. for 48 hours. A concentration was adjusted to 10 cfu/mL by diluting the P. fluorescens liquid with SCD broth. The test piece was taken cut after the cultivation, washed using normal saline, and an amount of a biofilm adhered on the surface of the test piece was measured. A biofilm inhibition rate was calculated by the following formula: Biofilm inhibition rate (%)=(measurement value of untreated test piece−measurement value of test piece coated with test liquid)/(measurement value of untreated test piece)×100

P. fluorescens biofilm [2] = experiment: Biofilm removing effect test after immersion in drug (Test example 3); settings: 1-week biofilm in 48-well microplate, CV staining
Method: as §1
SCD broth containing the bacterial liquid of P. fluorescens having a concentration of 10^6 cfu/mL prepared in Test example 1 was added to 48-well microplate manufactured by Sumitomo Bakelite Co., Ltd. for cultivation at 30° C. for 1 week to form a biofilm in the plate. The bacterial liquid as supernatant was removed, and the residue was rinsed using a sterilized normal saline and dried. The test liquid was prepared by a similar method to Test example 2. Specifically, a fine particle suspension was prepared so that a concentration of GPE-ized polycarboxylic acid became 0.5 wt % and a concentration of ε-PL became 0.04 wt % in the suspension. In a microplate in which a biofilm was formed, 1 mL of each test liquid was added to immerse the biofilm for 1 minute, 10 minutes, 30 minutes or 60 minutes to evaluate a biofilm removing effect at every immersion (contact) time. The test drug was removed after a lapse of the immersion (contact) time, and the residue was immediately washed using 1 mL of normal saline two times and dried to measure a biofilm amount by CV staining method described in Test example 2. A biofilm removing rate was calculated by the following formula: Biofilm removing rate (%)=(measurement value of untreatment−measurement value after immersion in test liquid)/(measurement value of untreatment)×100

P. fluorescens biofilm [3] = experiment: Biofilm inhibition test after immersion in (contact with) drug (Test example 4); settings: then re-cultivation in SCD broth 30° C. 24 hours, CV staining
Method: as §1
In a microplate of Test example 3 in which a biofilm was formed, 1 mL of each test drug was added for an immersion for 1 minute, 10 minutes, 30 minutes or 60 minutes. The test drug was removed after the contact time, and the residue was washed using 1 mL of normal saline two times. In the microplate, 1 mL of SCD broth was added for a cultivation at 30° C. for 24 hours to form a biofilm again and to evaluate a re-inhibition property of a biofilm. An amount of a biofilm was measured after the cultivation. An amount of a biofilm was measured by CV staining method described in Test example 2. A biofilm inhibition rate was calculated by the following formula: Biofilm inhibition rate (6)=(measurement value of untreatment−measurement value after immersion in test liquid)/(measurement value of untreatment)×100

[4] = system: P. fluorescens in biofilm; experiment: Biofilm bactericidal property test (Test example 5); settings: untreated 40000 cfu/well
Method: A number of a viable bacterium in the biofilm was measured by adding 1 mL of normal saline to the surface material on which a biofilm was adsorbed, destroying the biofilm using a ultrasonic washing machine, collecting an elution liquid, diluting the elution liquid from 10^2 to 10^8 using normal saline, inoculating the diluted solution into petri Film™ broth manufactured by 3M, performing cultivation at 30° C. for 1 week, and counting colonies.
After the test drug was contacted with a biofilm, a bactericidal property against the bacterium in the biofilm was tested. In a microplate of Test example 3 in which a biofilm was formed, 1 mL of each test drug was added for an immersion for 1 minute, 10 minutes, 30 minutes and 60 minutes. The test drug was removed after the lapse of contact time, and the reside was immediately washed using 1 mL of normal saline two times. In the microplate, 1 mL of normal saline was added. The bacterium was eluted in the normal saline by treating the mixture for 1 minute using an ultrasound bath to destroy the biofilm. The eluate was diluted from 10^2 to 10^8 using sterilized normal saline, and inoculated to Petrifilm™ broth manufactured by 3M for a cultivation at 30° C. for 1 week. Then, the number of colonies was counted and the number of viable bacteria was measured. The number of viable bacteria was 40000 cfu/well in the untreatment case; on the one hand, it was confirmed that the bacteria number in a biofilm was reduced by an immersion in the fine particle suspension in Examples 37 to 39 as the number of viable bacteria was reduced.

[5] = adhesion amount 0.01 μg/cm^2 on polyvinyl chloride test piece
[6] = adhesion amount 0.02 μg/cm^2 on polyvinyl chloride test piece
[7] = adhesion amount 0.04 μg/cm^2 on polyvinyl chloride test piece
[8] = adhesion amount 0.08 μg/cm^2 on polyvinyl chloride test piece
[9] = adhesion amount 0.12 μg/cm^2 on polyvinyl chloride test piece

## Cc1cc(O)ccc1C(C)C [compound 17, 4-isopropyl-3-methylphenol]
P. fluorescens biofilm [1]; [5]
  Biofilm inhibition rate: 41%

## Cc1cc(O)ccc1C(C)C [compound 18, 4-isopropyl-3-methylphenol]
P. fluorescens biofilm [1]; [6]
  Biofilm inhibition rate: 48%

## Cc1cc(O)ccc1C(C)C [compound 19, 4-isopropyl-3-methylphenol]
P. fluorescens biofilm [1]; [7]
  Biofilm inhibition rate: 57%

## Cc1cc(O)ccc1C(C)C [compound 20, 4-isopropyl-3-methylphenol]
P. fluorescens biofilm [1]; [8]
  Biofilm inhibition rate: 66%

## Cc1cc(O)ccc1C(C)C [compound 21, 4-isopropyl-3-methylphenol]
P. fluorescens biofilm [1]; [9]
  Biofilm inhibition rate: 75%

## Cc1cc(O)ccc1C(C)C [compound 24, 4-isopropyl-3-methylphenol]
P. fluorescens biofilm [2]; contact time 1 min
  Removal rate of biofilm every contact time (Test example 3): 60%
P. fluorescens biofilm [2]; contact time 10 min
  Removal rate of biofilm every contact time (Test example 3): 56%
P. fluorescens biofilm [2]; contact time 30 min
  Removal rate of biofilm every contact time (Test example 3): 61%
P. fluorescens biofilm [2]; contact time 60 min
  Removal rate of biofilm every contact time (Test example 3): 52%
P. fluorescens biofilm [3]; contact time 1 min
  Removal rate of biofilm every contact time (Test example 4): 22%
P. fluorescens biofilm [3]; contact time 10 min
  Removal rate of biofilm every contact time (Test example 4): 33%
P. fluorescens biofilm [3]; contact time 30 min
  Removal rate of biofilm every contact time (Test example 4): 37%
P. fluorescens biofilm [3]; contact time 60 min
  Removal rate of biofilm every contact time (Test example 4): 57%

## Cc1cc(O)ccc1C(C)C [compound 27, 4-isopropyl-3-methylphenol]
[4]; contact time 1 min
  Number of viable bacteria in biofilm every contact time: 1900 cfu/well
[4]; contact time 10 min
  Number of viable bacteria in biofilm every contact time: 800 cfu/well
[4]; contact time 30 min
  Number of viable bacteria in biofilm every contact time: 800 cfu/well
[4]; contact time 60 min
  Number of viable bacteria in biofilm every contact time: 800 cfu/well

## ε-poly-L-lysine [compound 7]
P. fluorescens biofilm [1]; [5]
  Biofilm inhibition rate: 5%

## ε-poly-L-lysine [compound 8]
P. fluorescens biofilm [1]; [6]
  Biofilm inhibition rate: 29%

## ε-poly-L-lysine [compound 9]
P. fluorescens biofilm [1]; [7]
  Biofilm inhibition rate: 45%

## ε-poly-L-lysine [compound 10]
P. fluorescens biofilm [1]; [8]
  Biofilm inhibition rate: 52%

## ε-poly-L-lysine [compound 11]
P. fluorescens biofilm [1]; [9]
  Biofilm inhibition rate: 57%

## ε-poly-L-lysine [compound 22]
P. fluorescens biofilm [2]; contact time 1 min
  Removal rate of biofilm every contact time (Test example 3): 87%
P. fluorescens biofilm [2]; contact time 10 min
  Removal rate of biofilm every contact time (Test example 3): 87%
P. fluorescens biofilm [2]; contact time 30 min
  Removal rate of biofilm every contact time (Test example 3): 84%
P. fluorescens biofilm [2]; contact time 60 min
  Removal rate of biofilm every contact time (Test example 3): 83%
P. fluorescens biofilm [3]; contact time 1 min
  Removal rate of biofilm every contact time (Test example 4): 22%
P. fluorescens biofilm [3]; contact time 10 min
  Removal rate of biofilm every contact time (Test example 4): 38%
P. fluorescens biofilm [3]; contact time 30 min
  Removal rate of biofilm every contact time (Test example 4): 40%
P. fluorescens biofilm [3]; contact time 60 min
  Removal rate of biofilm every contact time (Test example 4): 45%

## ε-poly-L-lysine [compound 25]
[4]; contact time 1 min
  Number of viable bacteria in biofilm every contact time: 1200 cfu/well
[4]; contact time 10 min
  Number of viable bacteria in biofilm every contact time: 1200 cfu/well
[4]; contact time 30 min
  Number of viable bacteria in biofilm every contact time: 1200 cfu/well
[4]; contact time 60 min
  Number of viable bacteria in biofilm every contact time: 1200 cfu/well
